# Measurements reported in paper PMC10385868 (Viruses, 2023).
# Like-named read-outs stand apart in the source and are kept apart here.
# What was measured:
# [1] = system: VEEV-Trd; assay: microbe, parasite or virus in culture; assay type: cell-based, Venezuelan equine encephalitis virus
# [2] = rat, microsomes
# [3] = target: T1, VEEV nsP2 protease (Venezuelan equine encephalitis virus, UniProt P27282); assay: biochemical; assay type: biochemical
# [4] = in vitro; conditions: African green monkey
# [5] = target: T1, VEEV nsP2 protease; assay: biochemical; conditions: for kinact/KI: read-out: VEEV nsP2 PROTEASE k2/Ki
# [6] = system: VEEV-Trinidad; assay: microbe, parasite or virus in culture; assay type: cell-based; conditions: Venezuelan equine encephalitis virus
# [7] = system: VEEV-TC83; assay: microbe, parasite or virus in culture; assay type: cell-based; conditions: Venezuelan equine encephalitis virus, HeLa, read-out: VEEV-TC83 EC50
# [8] = system: CHIKV; assay: microbe, parasite or virus in culture; assay type: cell-based; conditions: Chikungunya virus, U2OS, read-out: CHIKV EC50
# [9] = system: WEEV; assay: microbe, parasite or virus in culture; assay type: cell-based; conditions: Western equine encephalitis virus, HeLa, read-out: WEEV EC50
# [10] = system: EEEV; assay: microbe, parasite or virus in culture; assay type: cell-based; conditions: Eastern equine encephalitis virus, A549, read-out: EEEV EC50
# [11] = in vitro; conditions: human
# [12] = in vitro
# [13] = in vitro; conditions: SD, rat, microsomes
# [14] = physchem
# [15] = system: cell viability
# [16] = in vitro; conditions: PAMPA
# [17] = system: VEEV Trinidad; assay type: cell-based, Venezuelan equine encephalitis virus
# [18] = system: VEEV-infected HeLa cells; assay: microbe, parasite or virus in culture; assay type: cell-based, Venezuelan equine encephalitis virus
# [19] = Venezuelan equine encephalitis virus
# [20] = A549, read-out: VEEV-Trinidad EC50
# T1 sequence (P27282 1003-1322 limits assumed): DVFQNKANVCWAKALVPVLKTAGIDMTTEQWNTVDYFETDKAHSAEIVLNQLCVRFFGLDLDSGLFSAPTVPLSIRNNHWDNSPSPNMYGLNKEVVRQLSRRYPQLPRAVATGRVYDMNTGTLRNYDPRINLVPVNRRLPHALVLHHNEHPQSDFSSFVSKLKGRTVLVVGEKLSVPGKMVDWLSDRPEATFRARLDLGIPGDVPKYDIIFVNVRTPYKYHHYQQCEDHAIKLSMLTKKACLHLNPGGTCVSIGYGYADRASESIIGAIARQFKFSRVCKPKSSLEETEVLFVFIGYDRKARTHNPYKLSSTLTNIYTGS
structure (smiles),measurement,setting,value
CC(C)CCNC(=O)C(CC(C)C)NC(=O)C1OC1C(=O)O (stereo not drawn) [NCGC00018306-02],concentration showing inhibition in cell-based assays,[1],< 15 µM
O=c1cc(N2CCOCC2)oc2c1ccc1ccccc12 [NCGC00165840-02],Rat_SD/Microsomes t1/2,[2],>30 m
same,Permeability (PAMPA_Pion_Lipid),PAMPA,294.2 ×10⁻⁶ cm/s
CCc1ccc2c(c1)C(NC(C)=O)C(=O)N2CCN1CCOCC1 (stereo not drawn) [MLS001215951-01],IC50,[3],18 ± 7 µM
same,EC50,[1]; [19],> 50 µM
same,CC50,[4],> 50 µM
CC(C)CCNC(=O)[C@H](CC(C)C)NC(=O)[C@H]1O[C@@H]1C(=O)NCCCCO [NCGC00488906-01],kinact/KI,[5],12 M⁻¹ s⁻¹
same,EC50,[6]; A549,26 µM
same,EC50,[6]; [20],26.4 µM
same,EC50,[7],26.6 µM
same,EC50,[8],18.5 µM
same,EC50,[9],20.4 µM
same,EC50,[10],> 100 µM
same,Rat_SD/Microsomes t1/2,[2],>30 m
same,CC50,[11],> 50 µM
same,CC50,[12]; African green monkey,> 100 µM
same,CC50,[12]; human,> 50 µM
same,half-life,[13],> 30 min
same,solubility,[14],15.9 µg/mL
CC(=O)NC1C(=O)N(CCN2CCOCC2)c2ccc(F)cc21 (stereo not drawn) [MLS001215963-01],IC50,[3],16 ± 3 µM
O=C(Nc1ccccc1)NN(C(=O)CCl)c1ccccc1 [MLS001177992-01],EC50,[1]; read-out: EC50,> 50 µM
same,CC50,[15],> 50 µM
O=C(/C=C/c1cccs1)Nc1scc(-c2ccccc2)c1C(=O)O [MLS000773385-01],IC50,[3],15 ± 2 µM
same,EC50,[1]; [19],> 50 µM
same,CC50,[4],> 50 µM
CC(C)CCNC(=O)[C@H](CC(C)C)NC(=O)[C@H]1O[C@@H]1C(=O)NCc1ccncc1 [NCGC00488908-01],kinact/KI,[5],23 M⁻¹ s⁻¹
same,EC50,[6]; A549,9.5 µM
same,EC50,[6]; [20],9.45 µM
same,EC50,[7],9.23 µM
same,EC50,[8],50 µM
same,EC50,[9],14.6 µM
same,EC50,[10],≥ 100 µM
same,Rat_SD/Microsomes t1/2,[2],>30 m
same,PAMPA,,7.6 ×10⁻⁶ cm/s
same,CC50,[11],> 50 µM
same,CC50,[12]; African green monkey,> 100 µM
same,CC50,[12]; human,> 50 µM
same,half-life,[13],> 30 min
same,Papp,[16],7.6 ×10⁻⁶ cm/s
same,solubility,[14],> 60 µg/mL
CCC(C)C(NC(=O)C1OC1C(=O)NC(CC(C)C)C(=O)NCCC(C)C)C(=O)N1CCCC1C(=O)OCc1ccccc1 (stereo not drawn) [NCGC00484087-01],Ki,[5],5 µM
same,kinact/KI,[5],100 M⁻¹ s⁻¹
same,EC50,[6]; A549,8 µM
same,EC50,[6]; [20],7.9 µM
same,EC50,[7],2.17 µM
same,EC50,[9],5.74 µM
same,EC50,[10],13.2 µM
same,Rat_SD/Microsomes t1/2,[2],1.5 m
same,PAMPA,,1089.1 ×10⁻⁶ cm/s
same,CC50,[11],> 50 µM
same,CC50,[12]; African green monkey,> 100 µM
same,CC50,[12]; human,> 50 µM
same,half-life,[13],1.5 min
same,Papp,[16],1090 ×10⁻⁶ cm/s
same,solubility,[14],4.1 µg/mL
N=c1c2c(-c3ccccc3)c(-c3ccccc3)n(Cc3ccccc3)c2ncn1C1CCC(O)CC1 (stereo not drawn) [NCGC00247785-13],antiviral activity in plaque assays,[17],notable antiviral activities
CCc1nc(N2CCN(C(=O)CCl)CC2)c2c3c(sc2n1)CC(C)CC3 (stereo not drawn) [MLS001212815-01],IC50,[3]; read-out: IC50,> 200 µM
same,EC50,[1]; read-out: EC50,> 50 µM
same,CC50,[15],> 50 µM
O=c1[nH]c2ccccc2n1CCCN1CCN(C(c2ccccc2)c2ccccc2)CC1 [oxatomide],antiviral activity in plaque assays,[17],notable antiviral activities
same,reduction of VEEV viral replication in plaque assays,[17],> 5 log
COc1ccc(C2CC(c3cccs3)=NN2C(=O)CCl)cc1OC (stereo not drawn) [MLS001178292-01],IC50,[3]; read-out: IC50,> 200 µM
same,antiviral activity against VEEV-Trd in cell-based assays,[1]; at 50 µM,did not demonstrate significant antiviral activity
same,CC50,[15],> 50 µM
same,cytotoxicity,[15],cytotoxic
CC(=O)NC1C(=O)N(CCN2CCOCC2)c2ccc(Br)cc21 (stereo not drawn) [MLS001215987-01],IC50,[3],14 ± 3 µM
same,EC50,[1]; [19],> 50 µM
same,CC50,[4],> 50 µM
CC(C)CCNC(=O)[C@H](CC(C)C)NC(=O)[C@H]1O[C@@H]1C(=O)NCc1cccnc1 [NCGC00488907-01],kinact/KI,[5],86 M⁻¹ s⁻¹
same,EC50,[6]; A549,6 µM
same,EC50,[6]; [20],5.97 µM
same,EC50,[7],5.22 µM
same,EC50,[8],25.9 µM
same,EC50,[9],8.76 µM
same,EC50,[10],< 50 µM
same,Rat_SD/Microsomes t1/2,[2],6.4 m
same,PAMPA,,<4.3 ×10⁻⁶ cm/s
same,CC50,[11],> 50 µM
same,CC50,[12]; African green monkey,> 100 µM
same,CC50,[12]; human,> 50 µM
same,half-life,[13],6.4 min
same,Papp,[16],< 4.3 ×10⁻⁶ cm/s
C#Cc1cc(N2CCN(C(=O)c3ccoc3)CC2)n2nc(-c3cccc(Cl)c3)cc2n1 [MLS003116111-01],antiviral activity in plaque assays,[17],notable antiviral activities
Cc1ccc(C2=NN(C(=O)CCl)C(c3ccco3)C2)o1 (stereo not drawn) [MLS001179882-01],IC50,[3]; read-out: IC50,> 200 µM
same,EC50,[1]; read-out: EC50,> 50 µM
same,CC50,[15],> 50 µM
CC(C)CCNC(=O)[C@H](CC(C)C)NC(=O)[C@H]1O[C@@H]1C(=O)NCCCO [NCGC00487434-01],EC50,[6]; A549,70 to 80 µM
same,Rat_SD/Microsomes t1/2,[2],>30 m
same,CC50,[12]; African green monkey,> 100 µM
same,solubility,[14],22 µg/mL
COc1cc2c(cc1OC)C(c1cc(Br)ccc1F)N(C(=O)CCl)CC2 (stereo not drawn) [MLS001198393-01],IC50,[3]; read-out: IC50,> 200 µM
same,EC50,[1]; read-out: EC50,> 16.7 µM
same,CC50,[15],> 50 µM
Cc1cc(C(=O)CCl)c(C)n1-c1cccc([N+](=O)[O-])c1 [MLS000877947-01],IC50,[3]; read-out: IC50,> 200 µM
same,EC50,[1]; read-out: EC50,> 50 µM
same,CC50,[15],> 50 µM
CCCNC(=O)[C@H]1O[C@H]1C(=O)N[C@H](C(=O)N1CCC[C@@H]1C(=O)OC)C(C)CC (stereo partly drawn) [NCGC00163431-03],inhibition,[18],83%
same,inhibition at 1.562 µM,"[18]; Venezuelan equine encephalitis virus, HeLa",82.9%
same,concentration showing inhibition in cell-based assays,[1],< 15 µM
same,concentration at which toxicity / cytotoxicity was seen,[15]; African green monkey,100 µM
COc1cc(NS(C)(=O)=O)ccc1Nc1c2ccccc2nc2ccccc12 [amsacrine],antiviral activity in plaque assays,[17],notable antiviral activities
CC[C@H]1CN2CCc3cc(OC)c(OC)cc3[C@@H]2C[C@@H]1C[C@H]1NCCc2cc(OC)c(OC)cc21 [emetine],antiviral activity in plaque assays,[17],notable antiviral activities
CC(C)CCNC(=O)[C@H](CC(C)C)NC(=O)[C@H]1O[C@@H]1C(=O)NCc1ccc(C#N)cc1 [NCGC00488904-01],kinact/KI,[5],61 M⁻¹ s⁻¹
same,EC50,[6]; A549,4 µM
same,EC50,[6]; [20],4.29 µM
same,EC50,[7],4.09 µM
same,EC50,[8],14.8 µM
same,EC50,[9],5.15 µM
same,EC50,[10],16.2 µM
same,CC50,[11],> 50 µM
same,CC50,[12]; African green monkey,> 100 µM
same,CC50,[12]; human,> 50 µM
CC(C)CCNC(=O)[C@H](CC(C)C)NC(=O)[C@H]1O[C@@H]1C(=O)NCc1cccc(C#N)c1 [NCGC00488909-01],Ki,[5],3 µM
same,kinact/KI,[5],862 M⁻¹ s⁻¹
same,EC50,[6]; A549,1.8 µM
same,EC50,[6]; [20],1.76 µM
same,EC50,[7],1.48 µM
same,EC50,[8],9.85 µM
same,EC50,[9],5.02 µM
same,EC50,[10],43 µM
same,CC50,[11],> 50 µM
same,CC50,[12]; African green monkey,> 100 µM
same,CC50,[12]; human,> 50 µM
O=C(CSc1ccccn1)Nc1nonc1[N+](=O)[O-] [MLS001030320-01],IC50,[3]; read-out: IC50,> 100 µM
same,EC50,[1]; read-out: EC50,> 50 µM
same,CC50,[15],> 50 µM
O=c1[nH]c(=O)n(-c2ccccc2F)c(O)c1/C=C1\C=Nc2ccccc21 [MLS001197204-01],IC50,[3]; read-out: IC50,30 ± 20 µM
same,EC50,[1]; read-out: EC50,> 50 µM
same,CC50,[15],> 50 µM
